From article PMC7483518, “Destabilizing single chain major histocompatibility complex class I protein for repurposed enterokinase proteolysis” (Scientific Reports, 2020)
Where two headings read alike, the source gives them in different places.

Key:
[1] = tested on: HLA-A*11:01 single chain protein; type: biochemical, Human; design: EZ50kDa / EZ50kD (pH 6.2) / EZ50kD (pH 8) / EZ50kD (normalised: EBV1101 = 1, EBV0201 = 0) / EZ50kDa rank: unit not given beside the values;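 on EZ50kD (pH 6.2): scaled with positive control peptide as 1 and negative control peptide as 0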
[2] = target: photolabile unchained HLA-A*11:01 pMHC-I protein (Homo sapiens, UniProt P04439, A114D/D185E/E176A/F33Y/L180Q/S129P/T187R); test: ELISA with photolabile unchained pMHC-I protein and UV irradiation; type: binding
[3] = EASY MHC-I A*11:01, run 2019-08-06, 5min, mean of 2 replicates
[4] = EASY MHC-I A*11:01, run 2019-08-07, 5min, mean of 2 replicates
[5] = Table 2, pH 6.2, 37 °C, enterokinase, Eq. (4), instability cutoff < 0.3
[6] = Table 2, 62.5 nM photolabile pMHC-I mixture, 5 μM peptide in PBS, UV 365 nm 2 × 5 min on ice, 2 h room temperature on anti-β2m plate, Abs450nm − Abs570nm, instability cutoff < 0.6
[7] = EASY MHC-I A*11:01, run 2019-08-08, 5min, mean of 2 replicates
[8] = EASY MHC-I A*11:01, gel 2019-07-17 lr1028-1036 5min, replicate 1 (lanes 1-14)
[9] = EASY MHC-I A*11:01, gel 2019-07-17 lr1028-1036 5min, replicate 2 (lanes 15-28)

Sequence	EZ_mean [1]	EASY_mean ([2]; […], mean, STDEV)	EASY_mean [2]	further results
LTSTVQLIMQLM [TM1041]	-0.1142	-0.04948		
MPFGSLLD [CS1004]	-0.07336		-0.003998	
MPFGSLLDY [CS1013]	-0.0684		-0.03532	
MPFGSLLDYV [CS1023]	-0.04531		0.02198	
MPLGSLLDYVR [CS1034]	-0.06141		-0.006346	
MQLMPFGC [TM1008]				EZ_mean [1, 3]: -0.09972; EASY_mean ([2]; ELISA signal, mean, […]): -0.0333
MQLMPFGCL [TM1017]		-0.03322		EZ_mean [1, 4]: -0.1037
MQLMPFGCLLD [TM1038]	-0.125			EASY_mean ([2]; ELISA signal, mean, […]): -0.0584
NTLEQTVKK [reference compound]				EZ50kD (pH 6.2) [1, 5]: 0.5647; ELISA450nm [2, 6]: 1.631
PFGSLLDY [CS1005]	-0.07269		-0.004417	
PFGSLLDYVR [CS1024]	-0.007587		0.06666	
PVAIKTSPKA [EX1010]		-0.007707		EZ_mean ([1]; EASY MHC-I A*11:01, 2019-07-25, mean of the 2 replicates): -0.04257
PVAIKTSPKAN [EX1017]				EZ_mean ([1]; EASY MHC-I A*11:01, 2019-07-26, mean of the 2 replicates): -0.1176; EASY_mean ([2]; ELISA signal, mean, […]): -0.01335
PVAIKTSPKANK [EX1025]			-0.00741	EZ_mean ([1]; EASY MHC-I A*11:01, 2019-08-01, mean of the 2 replicates): -0.1057
QLIMQLMP [TM1005]				EZ_mean [1, 3]: -0.1114; EASY_mean ([2]; ELISA signal, mean, […]): -0.03905
QLIMQLMPF [TM1014]		-0.03038		EZ_mean [1, 4]: -0.09931
QLIMQLMPFG [TM1024]				EZ_mean [1, 7]: -0.01105; Norm_mean [1, 7]: 0.009219; EASY_mean ([2]; ELISA signal, mean, […]): -0.01897
QLIMQLMPFGC [TM1035]	-0.1197			EASY_mean ([2]; ELISA signal, mean, […]): -0.06893
QLIMQLMPFGCL [TM1047]	-0.1111		-0.05287	
QLITQLMPFGS [CS1028]	-0.07904		-0.02964	

Sequence	EZ_mean [1]	EASY_mean ([2]; […], mean, STDEV)	EASY_mean [2]	further results
QLITQLMPFGSL [CS1040]	-0.03735		-0.0163	
QLMPFGSLLD [CS1021]	-0.06288		0.0006677	
RAKLLGAE [LR1008]	-0.05335	-0.01564		
RAKLLGAEE [LR1017]	-0.04971	-0.0266		
RAKLLGAEEKE [LR1038]	-0.07295		-0.00823	
RAKLLGAEEKEY [LR1050]	0.007797		0.01434	
RSFKDLLKK [reference compound]				EZ50kD (pH 6.2) ([1]; pH 6.2): 0.6092; ELISA450nm [2]: 1.682
SLLDYVRE [CS1008]	-0.06325		-0.02238	
SLLDYVREHKD [CS1038]	-0.03388		-0.01097	
SSCSSCPLSK [reference compound]				EZ50kD (pH 6.2) [1, 5]: 0.6649; EZ50kD (pH 6.2) ([1]; pH 6.2): 0.9576; EZ50kD (pH 8) ([1]; pH 8): 0.8409; ELISA450nm [2, 6]: 1.272
STIPETTVVR [putative peptide, HBV, no IEDB entry]				EZ50kD (pH 6.2) [1, 5]: 0.3226; ELISA450nm [2, 6]: 1.391
STVQLIMQ [TM1002]		-0.02917		EZ_mean [1, 3]: -0.09047
STVQLIMQLM [TM1021]		-0.01593		EZ_mean [1, 7]: -0.03318; Norm_mean [1, 7]: -0.01917
STVQLIMQLMP [TM1032]	-0.1174			EASY_mean ([2]; ELISA signal, mean, […]): -0.06602
STVQLIMQLMPF [TM1043]	-0.1271	-0.05995		
TDFGRAKL [LR1004]	-0.05517	-0.01664		
TDFGRAKLL [LR1013]	-0.005317	-0.002506		
TDFGRAKLLG [LR1023]	-0.0651	-0.02398		
TDFGRAKLLGA [LR1034]			-0.04602	EZ_mean ([1]; EASY MHC-I A*11:01, gel 2019-07-17 lr1028-1036 5min, mean of 2 replicates): -0.04886; EZ50kD (normalised: EBV1101 = 1, EBV0201 = 0) [1, 8]: -0.06534; Norm (50 kDa band adj. volume normalised: Undig_37C = 1, Dig_37C = 0) [1, 8]: -0.06378; EZ50kD (normalised: EBV1101 = 1, EBV0201 = 0) [1, 9]: -0.03237; Norm (50 kDa band adj. volume normalised: Undig_37C = 1, Dig_37C = 0) [1, 9]: -0.02825
